Toxic doses and inconclusive results are not listed. How the source made its calls: active means survival T/C of 150% or more; inactive means T/C below 125% in these data.
Test system: CD2F1 mice, L1210 leukemia ip, survival T/C
Assay: NCI In Vivo Anticancer Drug Screen. Data for tumor model L1210 Leukemia (intraperitoneal) in CD2F1 (CDF1) mice
Conditions: endpoint: mean survival time, higher = longer survival
Summary of the method: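 Each value reflects a quotient of treated over vehicle control outcomes in mice with a transplanted tumor.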

[1] = dose: 12.5 mg/kg/injection, schedule: Q01DX009 (ip), vehicle: water
[2] = dose: 25.0 mg/kg/injection, schedule: Q01DX009 (ip), vehicle: water
[3] = dose: 50.0 mg/kg/injection, schedule: Q01DX009 (ip), vehicle: water
[4] = dose: 100.0 mg/kg/injection, schedule: Q01DX009 (ip), vehicle: water
[5] = dose: 100.0 mg/kg/injection, schedule: Q04DX003 (ip), vehicle: acetone
[6] = dose: 200.0 mg/kg/injection, schedule: Q04DX003 (ip), vehicle: acetone
[7] = dose: 400.0 mg/kg/injection, schedule: Q04DX003 (ip), vehicle: acetone
[8] = dose: 200.0 mg/kg/injection, schedule: Q01DX009 (ip), vehicle: water
[9] = dose: 12.5 mg/kg/injection, schedule: Q04DX002 (ip), vehicle: saline with Tween-80
[10] = dose: 100.0 mg/kg/injection, schedule: Q01DX001 (ip), vehicle: saline with Tween-80
[11] = dose: 200.0 mg/kg/injection, schedule: Q01DX001 (ip), vehicle: saline with Tween-80
[12] = dose: 400.0 mg/kg/injection, schedule: Q01DX001 (ip), vehicle: saline with Tween-80
[13] = dose: 100.0 mg/kg/injection, schedule: Q01DX009 (ip), vehicle: saline with Tween-80
[14] = dose: 25.0 mg/kg/injection, schedule: Q04DX002 (ip), vehicle: saline with Tween-80
[15] = dose: 50.0 mg/kg/injection, schedule: Q04DX002 (ip), vehicle: saline with Tween-80
[16] = dose: 25.0 mg/kg/injection, schedule: Q04DX003 (ip), vehicle: saline with Tween-80
[17] = dose: 50.0 mg/kg/injection, schedule: Q04DX003 (ip), vehicle: saline with Tween-80
[18] = dose: 200.0 mg/kg/injection, schedule: Q01DX009 (ip), vehicle: saline with Tween-80
[19] = dose: 400.0 mg/kg/injection, schedule: Q01DX009 (ip), vehicle: saline with Tween-80
[20] = dose: 100.0 mg/kg/injection, schedule: Q04DX003 (ip), vehicle: saline with Tween-80
[21] = dose: 200.0 mg/kg/injection, schedule: Q04DX003 (ip), vehicle: saline with Tween-80
[22] = dose: 400.0 mg/kg/injection, schedule: Q04DX003 (ip), vehicle: saline with Tween-80
[23] = dose: 100.0 mg/kg/injection, schedule: Q01DX009 (ip), vehicle: Klucel (hydroxypropylcellulose) (HPC)
[24] = dose: 200.0 mg/kg/injection, schedule: Q01DX009 (ip), vehicle: Klucel (hydroxypropylcellulose) (HPC)

Measured: T/C

COc1ccc(C2=NC(C)Cc3cc(OC)c(OC)cc32)cc1OC (configuration not stated)
inactive: [1] 96 % of control | [2] 94 % of control | [3] 94 % of control | [4] 91 % of control

O=C(N1CCOCC1)C1(c2ccccc2)CCNCC1
inactive: dose: 50.0 mg/kg/injection, schedule: Q01DX009 (ip), vehicle: saline 93 % of control | dose: 100.0 mg/kg/injection, schedule: Q01DX009 (ip), vehicle: saline 104 % of control

C=C(Cl)CSCCCS
inactive: [5] 111 % of control | [6] 116 % of control | [7] 122 % of control

COC1c2cc3ccccc3nc2-c2ccccc2C1(C)C (configuration not stated)
inactive: [1] 96 % of control | [2] 96 % of control | [3] 91 % of control | [4] 91 % of control | [8] 90 % of control

COc1ccc(C(=O)C(Br)Br)cc1OC
inactive: dose: 3.13 mg/kg/injection, schedule: Q04DX002 (ip), vehicle: saline with Tween-80 112 % of control | dose: 6.25 mg/kg/injection, schedule: Q04DX002 (ip), vehicle: saline with Tween-80 100 % of control | [9] 100 % of control

CN(C)/N=C/c1ccc(-c2ccccc2)cc1
inactive: [10] 101 % of control | [11] 103 % of control | [12] 112 % of control

CN1CCC(COC(=O)C(O)(c2ccccc2)c2ccccc2)C1 (configuration not stated)
inactive: dose: 25.0 mg/kg/injection, schedule: Q01DX009 (ip), vehicle: saline with Tween-80 100 % of control | dose: 50.0 mg/kg/injection, schedule: Q01DX009 (ip), vehicle: saline with Tween-80 100 % of control | [13] 94 % of control

Cc1c2ccn(O)cc2c(C)c2c1nc1ccccc12
inactive: dose: 25.0 mg/kg/injection, schedule: Q04DX003 (ip), vehicle: water 110 % of control | dose: 50.0 mg/kg/injection, schedule: Q04DX003 (ip), vehicle: water 103 % of control | dose: 100.0 mg/kg/injection, schedule: Q04DX003 (ip), vehicle: water 110 % of control | dose: 200.0 mg/kg/injection, schedule: Q04DX003 (ip), vehicle: water 105 % of control | dose: 400.0 mg/kg/injection, schedule: Q04DX003 (ip), vehicle: water 106 % of control

COc1ccccc1N=Nc1c(O)n(-c2ccc(Cl)cc2)c(=S)n(-c2ccccc2)c1=O
inactive: [10] 97 % of control | dose: 100.0 mg/kg/injection, schedule: Q04DX002 (ip), vehicle: saline with Tween-80 98 % of control | [11] 97 % of control | dose: 200.0 mg/kg/injection, schedule: Q04DX002 (ip), vehicle: saline with Tween-80 94 % of control | [12] 103 % of control | dose: 400.0 mg/kg/injection, schedule: Q04DX002 (ip), vehicle: saline with Tween-80 102 % of control

CCOC(=O)C(C)C(=O)C(C)N1C(=O)c2ccccc2C1=O (configuration not stated)
inactive: [1] 95 % of control | [2] 95 % of control | [3] 95 % of control | [4] 100 % of control | [8] 96 % of control

Cc1cc(C)cc(NCCC#N)c1
inactive: dose: 100.0 mg/kg/injection, schedule: Q01DX009 (ip), vehicle: other 98 % of control | dose: 100.0 mg/kg/injection, schedule: Q04DX003 (ip), vehicle: other 106 % of control | dose: 200.0 mg/kg/injection, schedule: Q01DX009 (ip), vehicle: other 98 % of control | dose: 200.0 mg/kg/injection, schedule: Q04DX003 (ip), vehicle: other 100 % of control | dose: 400.0 mg/kg/injection, schedule: Q01DX009 (ip), vehicle: other 98 % of control | dose: 400.0 mg/kg/injection, schedule: Q04DX003 (ip), vehicle: other 98 % of control

O=P(OCc1ccccc1)(N(CCCl)CCCl)N1CCCC1 (configuration not stated)
inactive: dose: 128.0 mg/kg/injection, schedule: Q01DX Z (ip), vehicle: saline 101 % of control

O=C(CCC(=O)Nc1ccc(S(=O)(=O)NCCO)cc1)Nc1ccc(S(=O)(=O)NCCO)cc1
inactive: dose: 12.5 mg/kg/injection, schedule: Q01DX001 (ip), vehicle: saline with Tween-80 105 % of control | [9] 96 % of control | dose: 25.0 mg/kg/injection, schedule: Q01DX001 (ip), vehicle: saline with Tween-80 107 % of control | [14] 96 % of control | dose: 50.0 mg/kg/injection, schedule: Q01DX001 (ip), vehicle: saline with Tween-80 97 % of control | [15] 86 % of control

O=[N+]([O-])c1ccc(N/N=C/C(Br)(Br)Br)c([N+](=O)[O-])c1
inactive: [16] 102 % of control | [17] 100 % of control

CC(C)N1C(=O)[N+](C)(C)N=C1[O-]
inactive: [10] 103 % of control | [13] 89 % of control | [11] 101 % of control | [18] 97 % of control | [12] 104 % of control | [19] 101 % of control

O=C(Nc1cc2ccccc2o1)O/N=C/c1ccccn1
inactive: [20] 92 % of control | [21] 92 % of control | [22] 86 % of control

CCOC(=O)c1ccc(NNS(=O)(=O)c2cccc(N)c2)cc1
inactive: [23] 97 % of control | [20] 96 % of control | [24] 93 % of control | [21] 101 % of control | dose: 400.0 mg/kg/injection, schedule: Q01DX009 (ip), vehicle: Klucel (hydroxypropylcellulose) (HPC) 101 % of control | [22] 95 % of control

O=C(O)C1CCCN1C(=O)c1ccccc1 (configuration not stated)
inactive: [20] 103 % of control | [21] 93 % of control | [22] 98 % of control

CC(=O)C1CN(C(C)(C)C)C1
inactive: dose: 6.25 mg/kg/injection, schedule: Q01DX009 (ip), vehicle: saline 93 % of control | dose: 6.25 mg/kg/injection, schedule: Q04DX003 (ip), vehicle: saline 98 % of control | dose: 12.5 mg/kg/injection, schedule: Q01DX009 (ip), vehicle: saline 98 % of control | dose: 12.5 mg/kg/injection, schedule: Q04DX003 (ip), vehicle: saline 96 % of control | dose: 25.0 mg/kg/injection, schedule: Q01DX009 (ip), vehicle: saline 98 % of control | dose: 25.0 mg/kg/injection, schedule: Q04DX003 (ip), vehicle: saline 95 % of control

O=CNc1cccc2ccc3c4ccccc4ccc3c12
inactive: [20] 98 % of control | [22] 91 % of control

CCOC(=O)Nc1cc(NC(c2ccc(Cl)cc2)c2ccc(Cl)cc2)c2[nH]cnc2n1
inactive: dose: 75.0 mg/kg/injection, schedule: Q01DX001 (ip), vehicle: other 117 % of control

CCOC(=O)CC(C)(O)Cc1ccccc1 (configuration not stated)
inactive: [5] 96 % of control | [6] 87 % of control | [7] 102 % of control

CC1NC=NC1C(c1ccccc1)c1ccccc1 (configuration not stated)
inactive: [16] 102 % of control | [17] 109 % of control | [20] 101 % of control

CCCCCCCCCCCSCCCCCCCCCCC
inactive: [13] 104 % of control | [20] 98 % of control | [18] 103 % of control | [21] 101 % of control | [19] 103 % of control | [22] 98 % of control

COC(=O)C1=CCN(C)CC1
inactive: dose: 100.0 mg/kg/injection, schedule: Q04DX003 (ip), vehicle: saline 97 % of control | dose: 200.0 mg/kg/injection, schedule: Q04DX003 (ip), vehicle: saline 96 % of control | dose: 400.0 mg/kg/injection, schedule: Q04DX003 (ip), vehicle: saline 90 % of control

NC(N)=NCC(=O)O
inactive: [20] 94 % of control | [21] 102 % of control | [22] 98 % of control

CCC(N)C(O)C(C)C (configuration not stated)
inactive: dose: 100.0 mg/kg/injection, schedule: Q01DX001 (ip), vehicle: saline 105 % of control | dose: 200.0 mg/kg/injection, schedule: Q01DX001 (ip), vehicle: saline 90 % of control | dose: 400.0 mg/kg/injection, schedule: Q01DX001 (ip), vehicle: saline 96 % of control

CCCCCCCCCCCCCCCCCC[N+](CCO)(CCO)Cc1ccc(C[N+](CCO)(CCO)CCCCCCCCCCCCCCCCCC)cc1
inactive: [9] 101 % of control | [14] 101 % of control | [15] 89 % of control

CCCCCCCCCCCCCCCCOc1ccccc1/C=N/O
inactive: [23] 87 % of control | [24] 89 % of control
